Test results published in ChEMBL document CHEMBL3098063, “Dammarane triterpenes from the leaves of Panax ginseng enhance cellular immunity” (Bioorg Med Chem, 2014).
Calls of active or inactive are those of the source.

Key:
Format in all cases: functional, cell-based
Splenocyte [1] = experiment: Inhibition of IL-4 secretion in ConA-activated Balb/C mouse splenocytes at 100 ng/mL after 1 day by ELISA
[2] = tested on: Peritoneal macrophage cell; experiment: Inhibition of NO production in LPS-activated mouse peritoneal macrophages at 100 ng/mL after 1 day by ELISA
[3] = tested on: Peritoneal macrophage cell; experiment: Increase in IL-12 production in LPS-activated mouse peritoneal macrophages at 100 ng/mL after 1 day by ELISA
Splenocyte [4] = experiment: Stimulation of IL-2 secretion in ConA-activated Balb/C mouse splenocytes at 100 ng/mL after 1 day by ELISA
Splenocyte [5] = experiment: Inhibition of IL-6 secretion in ConA-activated Balb/C mouse splenocytes at 100 ng/mL after 1 day by ELISA

CC(=O)/C=C/C=C(\C)[C@H]1CC[C@]2(C)[C@@H]1[C@H](O)C[C@@H]1[C@@]3(C)CC[C@H](O)C(C)(C)[C@@H]3[C@@H](O)C[C@]12C
active: inhibition (Splenocyte [1]) | inhibition [2] | Activity [3] | Activity (Splenocyte [4]) | inhibition (Splenocyte [5])

CC(C)=C[C@H]1C[C@](C)(O[C@@H]2O[C@H](CO)[C@@H](O)[C@H](O)[C@H]2O)[C@H]2CC[C@]3(C)[C@@H]2[C@@H](C[C@@H]2[C@@]4(C)CC[C@H](O)C(C)(C)[C@@H]4CC[C@]23C)O1
active: inhibition (Splenocyte [1]) | inhibition [2] | Activity [3] | Activity (Splenocyte [4]) | inhibition (Splenocyte [5])

CC(C)=CCC[C@](C)(O)[C@H]1CC[C@]2(C)[C@@H]1[C@H](O)C[C@@H]1[C@@]3(C)CC[C@H](O)C(C)(C)[C@@H]3[C@@H](O[C@@H]3O[C@H](CO)[C@@H](O)[C@H](O)[C@H]3O[C@H]3O[C@@H](C)[C@H](O)[C@@H](O)[C@H]3O)C[C@]12C
active: inhibition (Splenocyte [1]) | Activity [3] | Activity (Splenocyte [4]) | inhibition (Splenocyte [5])
